Measurements taken from publication PMC5064019, “Nicotinamide is an endogenous agonist for a C. elegans TRPV OSM-9 and OCR-4 channel” (Nature Communications, 2016).

What was measured:
Nan–Iav TRPV channel = target: T1, Nan–Iav TRPV channel (Drosophila melanogaster, UniProt Q9VUD5+Q9W3W0); assay: two-electrode voltage clamp, Xenopus oocytes, Hill fit; format: cell-based; conditions: read-out: K1/2
T1 construct: iav cDNA in pCR4-TOPO, synthesized nan cDNA in pcDNA3.1; cRNAs co-injected in Xenopus oocytes; heteromeric channel
T1 sequence (Q9VUD5 1-833): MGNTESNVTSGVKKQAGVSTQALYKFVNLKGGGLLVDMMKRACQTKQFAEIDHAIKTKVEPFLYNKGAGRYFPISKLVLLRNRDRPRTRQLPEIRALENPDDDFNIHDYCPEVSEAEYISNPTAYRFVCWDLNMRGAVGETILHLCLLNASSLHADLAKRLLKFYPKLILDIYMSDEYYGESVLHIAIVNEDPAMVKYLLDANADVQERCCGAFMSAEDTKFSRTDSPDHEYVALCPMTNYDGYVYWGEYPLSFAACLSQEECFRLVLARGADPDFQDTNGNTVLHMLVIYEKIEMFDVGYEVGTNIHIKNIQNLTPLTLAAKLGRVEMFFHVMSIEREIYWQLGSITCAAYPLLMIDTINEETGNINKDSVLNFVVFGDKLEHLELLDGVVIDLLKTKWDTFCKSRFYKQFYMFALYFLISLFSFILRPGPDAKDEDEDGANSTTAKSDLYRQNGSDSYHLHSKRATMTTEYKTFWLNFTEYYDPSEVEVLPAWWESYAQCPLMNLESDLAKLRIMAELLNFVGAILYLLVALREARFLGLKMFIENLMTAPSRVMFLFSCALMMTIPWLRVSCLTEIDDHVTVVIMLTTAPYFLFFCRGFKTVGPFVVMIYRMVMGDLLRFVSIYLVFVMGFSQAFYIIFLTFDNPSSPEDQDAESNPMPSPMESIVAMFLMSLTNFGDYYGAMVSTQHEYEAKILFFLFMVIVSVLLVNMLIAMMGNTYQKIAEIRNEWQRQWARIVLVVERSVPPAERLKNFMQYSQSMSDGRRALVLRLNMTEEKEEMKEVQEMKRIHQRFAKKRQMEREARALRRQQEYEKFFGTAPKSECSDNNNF
T1 sequence (Q9W3W0 1-1123): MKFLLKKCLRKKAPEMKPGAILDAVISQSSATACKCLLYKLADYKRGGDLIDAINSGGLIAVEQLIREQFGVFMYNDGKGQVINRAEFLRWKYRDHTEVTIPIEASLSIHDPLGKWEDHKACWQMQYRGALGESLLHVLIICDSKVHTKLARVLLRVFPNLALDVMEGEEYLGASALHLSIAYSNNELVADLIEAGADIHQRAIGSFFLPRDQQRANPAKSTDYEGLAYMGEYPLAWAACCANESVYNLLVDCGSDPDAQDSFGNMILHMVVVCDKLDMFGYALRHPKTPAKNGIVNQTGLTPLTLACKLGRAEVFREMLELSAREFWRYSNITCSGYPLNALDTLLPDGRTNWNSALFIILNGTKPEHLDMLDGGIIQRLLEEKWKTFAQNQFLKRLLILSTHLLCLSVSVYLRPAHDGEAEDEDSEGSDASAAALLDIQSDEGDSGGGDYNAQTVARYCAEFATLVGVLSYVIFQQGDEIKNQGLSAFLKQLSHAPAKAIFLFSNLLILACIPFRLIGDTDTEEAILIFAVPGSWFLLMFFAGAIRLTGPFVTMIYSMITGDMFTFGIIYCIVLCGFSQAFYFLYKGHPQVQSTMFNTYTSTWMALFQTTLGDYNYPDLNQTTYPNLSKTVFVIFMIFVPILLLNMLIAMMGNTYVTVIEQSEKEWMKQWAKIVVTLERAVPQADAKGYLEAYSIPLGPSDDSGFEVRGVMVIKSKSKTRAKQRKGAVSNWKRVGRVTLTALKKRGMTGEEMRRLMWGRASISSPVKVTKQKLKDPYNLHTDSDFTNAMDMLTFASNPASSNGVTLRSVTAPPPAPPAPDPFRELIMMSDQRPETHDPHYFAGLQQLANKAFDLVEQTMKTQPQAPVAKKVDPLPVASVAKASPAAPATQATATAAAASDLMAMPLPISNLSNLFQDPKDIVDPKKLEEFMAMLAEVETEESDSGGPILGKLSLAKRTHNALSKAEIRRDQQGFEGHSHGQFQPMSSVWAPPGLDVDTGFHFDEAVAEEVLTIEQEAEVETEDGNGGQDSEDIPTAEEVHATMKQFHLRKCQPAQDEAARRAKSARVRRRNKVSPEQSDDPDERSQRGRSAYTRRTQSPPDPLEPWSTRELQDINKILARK

OSM-9–OCR-4 TRPV channel = target: T2, OSM-9–OCR-4 TRPV channel (Caenorhabditis elegans, UniProt G5EBV8+Q9N3Y9); assay: as above; format: cell-based; conditions: read-out: K1/2
T2 construct: untagged cDNAs (osm-9 in pGEMHE, ocr-4 in pOX); cRNAs co-injected in Xenopus oocytes; heterotetramer, likely 2:2
T2 sequence (G5EBV8 1-937): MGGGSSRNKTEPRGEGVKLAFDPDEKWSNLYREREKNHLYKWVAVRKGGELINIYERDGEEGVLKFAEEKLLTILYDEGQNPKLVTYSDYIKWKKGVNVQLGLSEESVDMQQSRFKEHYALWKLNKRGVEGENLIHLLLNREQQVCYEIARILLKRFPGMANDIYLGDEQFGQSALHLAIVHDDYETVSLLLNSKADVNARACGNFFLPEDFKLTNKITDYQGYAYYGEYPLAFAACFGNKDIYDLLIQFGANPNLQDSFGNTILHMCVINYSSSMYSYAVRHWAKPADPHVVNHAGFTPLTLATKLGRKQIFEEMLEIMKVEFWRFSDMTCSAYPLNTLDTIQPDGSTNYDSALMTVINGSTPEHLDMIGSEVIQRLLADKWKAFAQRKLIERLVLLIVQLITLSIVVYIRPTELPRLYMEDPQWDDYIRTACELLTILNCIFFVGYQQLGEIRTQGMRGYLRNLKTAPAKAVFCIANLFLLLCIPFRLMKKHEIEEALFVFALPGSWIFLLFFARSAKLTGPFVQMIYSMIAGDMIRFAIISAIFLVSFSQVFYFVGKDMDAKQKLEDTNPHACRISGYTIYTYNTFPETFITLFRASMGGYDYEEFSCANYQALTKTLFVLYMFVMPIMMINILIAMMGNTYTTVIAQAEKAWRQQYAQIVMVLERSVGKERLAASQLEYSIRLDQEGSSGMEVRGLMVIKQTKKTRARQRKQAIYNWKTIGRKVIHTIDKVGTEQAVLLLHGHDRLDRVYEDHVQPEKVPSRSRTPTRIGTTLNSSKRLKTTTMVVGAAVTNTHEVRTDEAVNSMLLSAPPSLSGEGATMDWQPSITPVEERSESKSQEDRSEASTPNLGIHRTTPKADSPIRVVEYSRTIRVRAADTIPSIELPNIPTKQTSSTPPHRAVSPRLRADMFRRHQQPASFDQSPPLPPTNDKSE
T2 sequence (Q9N3Y9 1-756): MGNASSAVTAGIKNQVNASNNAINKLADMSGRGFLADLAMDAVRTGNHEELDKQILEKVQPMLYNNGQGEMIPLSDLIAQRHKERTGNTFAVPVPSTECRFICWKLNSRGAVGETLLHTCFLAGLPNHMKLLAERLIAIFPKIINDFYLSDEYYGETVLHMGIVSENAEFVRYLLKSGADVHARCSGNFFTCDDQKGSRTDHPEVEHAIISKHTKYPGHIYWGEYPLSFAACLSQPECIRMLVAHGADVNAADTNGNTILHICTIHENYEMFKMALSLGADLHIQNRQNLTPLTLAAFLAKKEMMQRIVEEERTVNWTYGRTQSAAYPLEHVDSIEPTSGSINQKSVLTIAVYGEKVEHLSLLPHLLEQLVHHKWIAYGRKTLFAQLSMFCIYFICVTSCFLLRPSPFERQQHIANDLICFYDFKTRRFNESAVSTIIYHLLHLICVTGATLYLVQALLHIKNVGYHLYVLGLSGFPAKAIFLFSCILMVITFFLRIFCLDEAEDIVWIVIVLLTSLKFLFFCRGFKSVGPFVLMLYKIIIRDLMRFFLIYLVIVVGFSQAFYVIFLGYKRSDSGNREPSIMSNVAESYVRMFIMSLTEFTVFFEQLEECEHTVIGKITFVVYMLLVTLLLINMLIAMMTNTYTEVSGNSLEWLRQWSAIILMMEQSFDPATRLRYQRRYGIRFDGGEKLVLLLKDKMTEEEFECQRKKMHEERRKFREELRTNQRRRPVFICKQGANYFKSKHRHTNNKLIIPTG

In the case of `NC(=O)c1cccnc1` [nicotinamide], the EC50 (Nan–Iav TRPV channel) is reported as 14.4 ± 1 µM and the EC50 (OSM-9–OCR-4 TRPV channel) is reported as 63.3 ± 13.2 µM.
